Reference: ChEMBL document CHEMBL1121775, “Synthesis and antimalarial effects of N2-aryl-N4-[(dialkylamino)alkyl]- and N4-aryl-N2-[(dialkylamino)alkyl]-2,4-quinazolinediamines” (J Med Chem, 1981)
“And” between values parts separate entries of the source, which are not always exact repeats. Equal entries are not always repeated.

Key:
[1] = The ratio of SD90 of the quinine hydrochloride, to the SD90 of the test substance for the Dose of 6 mg/kg; type: functional
Plasmodium berghei [2] = test: Antimalarial activity against trophozoite-induced Plasmodium berghei in mice (Mus musculus); type: functional
Plasmodium berghei [3] = test: Antimalarial effect against trophozoite-induced Plasmodium berghei in mice (Mus musculus) after 20 mg/kg subcutaneous dose; type: functional
Plasmodium berghei [4] = test: Antimalarial effect against trophozoite-induced Plasmodium berghei in mice (Mus musculus) after 40 mg/kg subcutaneous dose; type: functional
Plasmodium berghei [5] = test: Antimalarial effect against trophozoite-induced Plasmodium berghei in mice (Mus musculus) at 640 mg/kg subcutaneous dose; type: functional; details: 640 mg/kg
Mus musculus [6] = test: Number of mice cured at a subcutaneous dose of 640 mg/kg.; type: functional
Plasmodium berghei [7] = test: Antimalarial effect against trophozoite-induced Plasmodium berghei in mice (Mus musculus) at 80 mg/kg subcutaneous dose; type: functional
Plasmodium berghei [8] = test: Antimalarial effect against trophozoite-induced Plasmodium berghei in mice (Mus musculus) at 320 mg/kg subcutaneous dose; type: functional
Plasmodium berghei [9] = test: Antimalarial effect against trophozoite-induced Plasmodium berghei in mice (Mus musculus) at 160 mg/kg subcutaneous dose; type: functional
Mus musculus [10] = test: Number of mice cured at a dose of 640 mg/kg sc; type: functional; details: route subcutaneous
Mus musculus [11] = test: Number of toxic deaths at a dose of 320 mg/kg; type: toxicity, organism-based; design: dose 320 mg/kg; details: in vivo
Mus musculus [12] = test: Number of toxic deaths at a dose of 640 mg/kg; type: toxicity, organism-based; design: dose 640 mg/kg; details: in vivo
[13] = The ratio of SD90 of the quinine hydrochloride, to the SD90 of the test substance for the Dose of 40 mg/kg; type: functional
Mus musculus [14] = test: Number of mice cured at a subcutaneous dose of 320 mg/kg.; type: functional
Mus musculus [15] = test: Number of mice cured at a dose of 320 mg/kg sc; type: functional; details: route subcutaneous
[16] = The ratio of SD90 of the quinine hydrochloride, to the SD90 of the test substance for the Dose of 9.3 mg/kg; type: functional
[17] = The ratio of SD90 of the quinine hydrochloride, to the SD90 of the test substance for the Dose of >69 mg/kg; type: functional
[18] = The ratio of SD90 of the quinine hydrochloride, to the SD90 of the test substance for the Dose of 9.8 mg/kg; type: functional
Mus musculus [19] = test: Number of mice cured at a dose of 160 mg/kg sc; type: functional; details: route subcutaneous
[20] = The ratio of SD90 of the quinine hydrochloride, to the SD90 of the test substance for the Dose of 17.5 mg/kg; type: functional
Plasmodium berghei [21] = test: Antimalarial activity against trophozoite-induced Plasmodium berghei in mice (Mus musculus) at 160 mg/kg subcutaneous dose; type: functional; details: 160 mg/kg
Mus musculus [22] = test: Number of mice cured at a subcutaneous dose of 160 mg/kg.; type: functional
[23] = The ratio of SD90 of the quinine hydrochloride, to the SD90 of the test substance for the Dose of 6.3 mg/kg; type: functional
[24] = The ratio of SD90 of the quinine hydrochloride, to the SD90 of the test substance for the Dose of 11 mg/kg; type: functional
[25] = The ratio of SD90 of the quinine hydrochloride, to the SD90 of the test substance for the Dose of 120 mg/kg; type: functional

| Structure (SMILES) | SD90 (Plasmodium berghei [2]) [mg/kg/day] | MST (Plasmodium berghei [3]) [days] | MST (Plasmodium berghei [4]; 40 mg/kg) | MST (Plasmodium berghei [5]) | MST (Plasmodium berghei [7]) [days] | MST (Plasmodium berghei [8]) [days] | MST (Plasmodium berghei [9]; 160 mg/kg) | No. of survivals (Mus musculus [10]) | MST (Plasmodium berghei [4]) [days] | other results |
| --- | --- | --- | --- | --- | --- | --- | --- | --- | --- | --- |
| CN1CCCC1CCNc1nc(Nc2cccc(Br)c2)nc2ccccc12 (stereo not given) | 6 | 1.6 | 5.2 days and 4.5 days | 20.3 days and 21.9 days | 7.8 | 15 | 11.4 days and 11.7 days |  |  | Ratio [1]: 12.4; No. of cured (Mus musculus [6]; 640 mg/kg): 3 and 2 |
| CCN(CC)CCNc1nc(Nc2ccc(OC)c(CN(CC)CC)c2)nc2ccccc12 | 40 | 0.4 |  |  | 5.6 |  |  | 2 | 2.8 | No. of toxic deaths (Mus musculus [11]): 1; No. of toxic deaths (Mus musculus [12]): 1; Ratio [13]: 1.9; No. of survivals (Mus musculus [14]): 2; MST (Plasmodium berghei [9]): 8.6 days |
| CN(C)C1CCC(Nc2nc(Nc3cc(Cl)cc(Cl)c3)nc3ccccc23)CC1 (stereo in doubt; 25) | 9.3 |  | 9.7 days and 9.3 days |  |  |  | 17.5 days and 16.9 days |  |  | MST (Plasmodium berghei [3]; 20 mg/kg): 5.1 days; No. of cured (Mus musculus [6]): 5; MST (Plasmodium berghei [7]; 80 mg/kg): 10.9 days; MST (Plasmodium berghei [8]; 320 mg/kg): 24.9 days; No. of cured (Mus musculus [15]): 4; Ratio [16]: 8 |
| CCNCc1cc(Nc2nc(NC3CCC(N(C)C)CC3)c3ccccc3n2)ccc1OC (stereo not given) | >69 | 0.3 |  |  | 2.7 |  |  |  | 0.5 | Ratio [17]: <1.1; MST (Plasmodium berghei [9]): 3.7 days |
| CN1CCCC1CCNc1nc(Nc2ccc(Cl)cc2)nc2ccccc12 (stereo not given) | 9.8 | 0.8 | 1.1 days and 0.8 days | 12.2 days and 22.3 days | 4.4 | 14.4 | 10.7 days and 10.2 days |  |  | No. of cured (Mus musculus [6]; 640 mg/kg): 2 and 3; Ratio [18]: 7.6 |
| CCN(CC)C1CCCC(Nc2nc(Nc3ccc(Cl)c(Cl)c3)nc3ccccc23)C1 (stereo not given) | 17.5 | 1 | 5 days and 4.8 days |  | 8 |  |  |  |  | No. of cured (Mus musculus [19]): 2; Ratio [20]: 4.2; MST (Plasmodium berghei [21]): 22.8 days and 23.1 days; No. of cured (Mus musculus [6]): 5; No. of cured (Mus musculus [15]): 5 |
| Clc1ccc(Nc2nc(NCCCN3CCCC3)c3ccccc3n2)cc1Cl | 12 |  |  |  |  |  |  | 5 | 5.2 | No. of survivals (Mus musculus [22]): 4; Ratio [23]: 12 |
| OC1CCCN(CCCNc2nc(Nc3ccc(Cl)cc3)nc3ccccc23)C1 (stereo not given) | 11 | 0.2 | 2.2 days and 2.5 days | 26.1 days and 23.9 days | 4.6 | 17.5 | 10.4 days and 11.3 days | 2 |  | Ratio [24]: 6.8; No. of survivals (Mus musculus [14]): 2 |
| CCN(CC)CCNc1nc(Nc2cc(Cl)cc(Cl)c2)nc2ccccc12 | 120 | 0.2 |  | 22.1 days and 20.8 days | 3.2 | 12.2 | 8.2 days and 9 days |  |  | No. of survivals (Mus musculus [10]; 640 mg/kg): 2 and 3; Ratio [25]: 0.6 |
